This note sets out measurements from ChEMBL document CHEMBL1201862, “PubChem BioAssay data set” (2004).

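Dose response: 5 concentrations. Exposure: 48 h. Format: 96-well plates. Endpoint: linear interpolation; highest concentration if not reached. GI50: concentration for 50% inhibition of growth.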 Activity calls are given as the source filed them. No stated cut-off is given here; in the data, active = GI50 up to about 1.1 µM and inactive = higher. A value given as a limit tells only on which side of the number the result lay.

Among the test systems are 786-0; A549; BT-549; CAKI-1; CCRF-CEM; HCT-116; HCT-15; HOP-92; IGROV-1; LOX IMVI; MDA-MB-435; MDA-N; MOLT-4; Malme-3M; NCI-H226; RXF 393; SK-OV-3; SNB-75; U-251; NCI/ADR-RES.
Holding throughout (assay): DTP human tumour cell line panel, 48 h

Broadly, the GI50 is the concentration at which growth is held to half of that of the control. For `C=C(CN(C)C)C(=O)c1ccc(OC2OC(COC(C)=O)C(OC(C)=O)C(OC(C)=O)C2OC(C)=O)cc1` (stereo unspecified), the GI50 with 786-0 is 2.24 µM (inactive); with A549, 21.2 µM (inactive); in the experiment with BT-549, 2.61 µM (inactive); in the experiment on CAKI-1 it was 1.59 µM (inactive); with CCRF-CEM, 0.185 µM (active); in the experiment on HCT-116, 2.25 µM (inactive). Moreover, the GI50 in the experiment on HCT-15 is 3.03 µM; with HOP-92 it was 0.581 µM (active); in the experiment with IGROV-1, 13.4 µM (inactive); in the experiment on LOX IMVI it was 3.35 µM (inactive); with MDA-MB-435, 6.18 µM (inactive); with MDA-N, 3.03 µM (inactive). Further, the GI50 in the experiment on MOLT-4 is 0.54 µM (active); in the experiment on Malme-3M, 1.96 µM (inactive); with NCI-H226, 7.36 µM (inactive); in the experiment with RXF 393, 1.76 µM (inactive); in the experiment on SK-OV-3, 19.4 µM (inactive); with SNB-75 it was 11.4 µM (inactive). Moreover, in the experiment with U-251, the GI50 is 15.8 µM (inactive).

Regarding `CCCCCCNCCCNc1c2cc(OC)ccc2nc2cccc([N+](=O)[O-])c12`, the GI50 in the experiment with 786-0 is 0.0834 µM (active); in the experiment with A549 it was 0.0578 µM (active); in the experiment on BT-549, 0.809 µM (active); with CAKI-1 it was 0.211 µM (active); in the experiment with CCRF-CEM, 0.0403 µM (active); with HCT-116, 0.036 µM (active). The GI50 was 0.198 µM with HCT-15; 0.136 µM (active) with HOP-92; 0.0119 µM (active) in the experiment on IGROV-1; 0.134 µM (active) in the experiment with LOX IMVI; 0.143 µM (active) in the experiment on MDA-MB-435; 0.112 µM (active) in the experiment with MOLT-4. The GI50 is 0.0304 µM (active) in the experiment with Malme-3M; 0.257 µM (active) in the experiment on NCI-H226; 0.658 µM (active) in the experiment on NCI/ADR-RES; 0.0245 µM (active) with RXF 393; 0.627 µM (active) in the experiment on SK-OV-3; 0.298 µM (active) with SNB-75. Also, in the experiment on U-251, the GI50 was 0.131 µM (active).

As to `N#Cc1c(-c2ccccc2)c(/N=N/c2ccc(Cl)cc2)c(=O)n2c1[nH]c1ccccc12`, the GI50 in the experiment with 786-0 is 23.6 µM (inactive); in the experiment with A549, > 100 µM (inactive); in the experiment with BT-549, > 100 µM (inactive); in the experiment on CAKI-1, 24.3 µM (inactive); with CCRF-CEM, > 100 µM (inactive); with HCT-116, 31 µM (inactive). Besides, the GI50 with HCT-15 was above 100 µM; with IGROV-1, 73.1 µM (inactive); in the experiment on LOX IMVI, > 100 µM (inactive); in the experiment on MDA-MB-435 it was > 100 µM (inactive); in the experiment on MDA-N, > 100 µM (inactive); in the experiment with Malme-3M, > 100 µM (inactive). For the same compound, the GI50 in the experiment with NCI-H226 was 65.9 µM (inactive); in the experiment on NCI/ADR-RES it was 92.9 µM (inactive); in the experiment with RXF 393 it was 42.1 µM (inactive); with SK-OV-3 it was 94.2 µM (inactive); with SNB-75, 71 µM (inactive); in the experiment on U-251, 21.2 µM (inactive).

Take `Cc1nnc2n(c1=O)CCN2C`: the GI50 is > 100 µM (inactive) with 786-0; > 100 µM (inactive) with A549; > 100 µM (inactive) in the experiment with BT-549; > 100 µM (inactive) with CCRF-CEM; > 100 µM (inactive) with HCT-116; above 100 µM in the experiment on HCT-15. Further, the GI50 in the experiment on HOP-92, in the experiment with IGROV-1, in the experiment with LOX IMVI, with MDA-MB-435, in the experiment with MDA-N and with MOLT-4 was > 100 µM (inactive) throughout. The GI50 with Malme-3M is > 100 µM (inactive); in the experiment with NCI-H226, > 100 µM (inactive); with RXF 393, > 100 µM (inactive); in the experiment with SK-OV-3, > 100 µM (inactive); in the experiment with SNB-75, 89.7 µM (inactive); in the experiment with U-251, > 100 µM (inactive).

For the compound `CN(C(=O)Cc1ccc(Cl)c(Cl)c1)[C@H]1CCCC[C@@H]1[N+]1(C)CCCC1`, the GI50 with 786-0 was > 100 µM (inactive); with A549, > 100 µM (inactive); with BT-549, > 100 µM (inactive); with CAKI-1 it was > 100 µM (inactive); with CCRF-CEM it was 3.37 µM (inactive); in the experiment on HCT-116, > 100 µM (inactive). Also, the GI50 was above 100 µM with HCT-15; > 100 µM (inactive) in the experiment on IGROV-1; > 100 µM (inactive) with LOX IMVI; > 100 µM (inactive) with MDA-MB-435; > 100 µM (inactive) in the experiment on MDA-N; > 100 µM (inactive) in the experiment on MOLT-4. Further, the GI50 in the experiment on Malme-3M, in the experiment on NCI-H226, with NCI/ADR-RES, in the experiment on SK-OV-3 and with U-251 was > 100 µM (inactive) throughout.

Take `O=C(N/N=C1\CCc2ccccc21)N/N=C1\CCc2ccccc21`: the GI50 in the experiment on 786-0, in the experiment on A549, in the experiment on BT-549, in the experiment on CAKI-1, in the experiment on CCRF-CEM and in the experiment with HCT-116 was > 100 µM (inactive) in each case. Besides, the GI50 with HCT-15 is above 100 µM; in the experiment with IGROV-1, > 100 µM (inactive); in the experiment on LOX IMVI, > 100 µM (inactive); in the experiment with MDA-MB-435 it was > 100 µM (inactive); with MDA-N, 11.2 µM (inactive); with MOLT-4 it was > 100 µM (inactive). The GI50 in the experiment on Malme-3M, in the experiment on NCI-H226, in the experiment on NCI/ADR-RES, with RXF 393, in the experiment with SK-OV-3 and with SNB-75 was > 100 µM (inactive) in each case. The GI50 in the experiment on U-251 is > 100 µM (inactive).

For the compound `COc1ccc2cc(NC(=O)Nn3cnnc3)ccc2c1`, the GI50 with 786-0, in the experiment on A549, with BT-549, in the experiment with CAKI-1, with CCRF-CEM and in the experiment with HCT-116 was > 100 µM (inactive) in each case. Further, the GI50 with HCT-15 was above 100 µM; in the experiment on HOP-92 it was > 100 µM (inactive); with IGROV-1 it was > 100 µM (inactive); in the experiment with LOX IMVI, > 100 µM (inactive); in the experiment with MDA-MB-435, > 100 µM (inactive); in the experiment on MDA-N it was > 100 µM (inactive). Moreover, the GI50 in the experiment with MOLT-4 is > 100 µM (inactive); in the experiment on Malme-3M, > 100 µM (inactive); with NCI-H226, > 100 µM (inactive); in the experiment on SK-OV-3, > 100 µM (inactive); in the experiment on SNB-75 it was 12.7 µM (inactive); in the experiment on U-251, > 100 µM (inactive).

For the compound `CC(=O)n1[nH]c(=O)n(-c2ccc(Cl)cc2)c1=O`, the GI50 in the experiment with 786-0, in the experiment on A549, in the experiment with BT-549, in the experiment with CAKI-1, with CCRF-CEM and in the experiment on HCT-116 was > 100 µM (inactive) each time. Moreover, the GI50 in the experiment on HCT-15 is above 100 µM; in the experiment with IGROV-1, > 100 µM (inactive); with LOX IMVI, > 100 µM (inactive); in the experiment with MDA-MB-435 it was > 100 µM (inactive); in the experiment on MDA-N, > 100 µM (inactive); with MOLT-4, > 100 µM (inactive). Besides, the GI50 with Malme-3M was 45.9 µM (inactive); in the experiment with NCI-H226, > 100 µM (inactive); with NCI/ADR-RES it was > 100 µM (inactive); in the experiment with RXF 393, > 100 µM (inactive); in the experiment on SK-OV-3, > 100 µM (inactive); in the experiment on U-251, > 100 µM (inactive).
